Earlier results as cited in patent US20090012066A1, “Method of Use of Deacetylase Inhibitors” (Novartis AG, priority 2005, published 2009).

Key:
[1] = tested on: hypertrophy induced by infusion of isoproterenol
[2] = tested on: cardiac hypertrophy in transgenic mice that over-express Hop; conditions: transgenic mice over-expressing Hop; Kook et al. 2003

For `CC(/C=C/C(=O)NO)=C\[C@@H](C)C(=O)c1ccc(N(C)C)cc1` [trichostatin A], which “effect on hypertrophy induced by infusion of isoproterenol” value [1] is on record?
The value was “attenuates hypertrophy”.

What about the “effect on cardiac hypertrophy” value [2] of the same molecule?
The value was “prevents cardiac hypertrophy”.
